Experimental data reported in patent US20130210752A1, “USING A NOVEL HIGH-THROUGHPUT YEAST CELL-BASED SCREENING PLATFORM TO IDENTIFY HMG-COA REDUCTASE INHIBITORS FROM NATURAL PRODUCTS AND THE USES OF SUCH INHIBITORS THEREOF” (HONG KONG BAPTIST UNIVERSITY, priority 2012, published 2013).

Legend:
[1] = system: yeast cells lacking HMG1 and HMG2 with HMG1 overexpression plasmid (HMG-CoAR); test: Yeast HMG-CoAR screening assay (yeast cell growth, OD660, with or without mevalonate); assay type: cell-based, Saccharomyces cerevisiae; settings: for restoration of growth / reduction of inhibitory effect in the presence of mevalonate (compounds from Fraction 7): 300 μg/ml (7E1: 150 μg/ml), with mevalonate; for growth inhibition in the yeast cells: without mevalonate
Text: The present invention provides a screening method to identify potential HMG-CoAR inhibitors. The present method comprises providing a yeast strain which lacks HMG1 and HMG2 genes but containing a HMG1 overexpression plasmid, contacting said yeast strain with a test material. If the test material can inhibit the HMG1 activity or expression, the yeast cells will die. In order to validate the death of yeast cells is due to inhibition of HMG1 by the test material, the present invention also includes adding mevalonate compound, which is a downstream product of the HMG-CoAR. HMG-CoAR inhibitory activity of the test material is confirmed if the cell viability of the yeast strain is unaffected by the test material in the presence of mevalonate.
Saccharomyces cerevisiae (MATa ade2-101 his3-200 hmg1::LYS2 hmg2:his3 lys2-80 met TRP1 ura3-52 with overexpression of yeast HMG1 containing plasmid) were used in the screening assay. Cells were grown at 30° C. in YEPD, consisting of 10 g/L yeast extract, 20 g/L Bacto-peptone and 20 g/L dextrose.
Yeast cells were grown overnight in YEPD medium to ^˜7.0 OD660 at 30° C. Cells were then subculture to a fresh YEPD medium with starting ^˜0.1 starting OD660 and grew for another 8 hours to ^˜1.2 OD660. The assay was performed in a 96-well plate. 2.7×10^4 cells, tested drugs/chemicals and/or mevalonate were added to each well in a final volume of 100 μl. All experiments were performed in triplicate. Cells were then grown for 16 hours at 30° C. and the inhibitory effect of HMG-CoAR determined by measuring the cell density OD660 of each well by a micro-plate reader. Statin was used as a positive control and mevalonate supplement was used to validate the inhibitory effect of tested compounds on HMG-CoAR.

[2] = biological target: T1, HMG-CoAR (Homo sapiens, UniProt P04035); test: In vitro HMG-CoAR activity assay (commercial kit, Sigma; NADPH oxidation at 340 nm); assay type: biochemical; settings: 60 μg/ml
T1 construct: the oxidation of NADPH by the catalytic subunit of HMGR in the presence of the substrate of HMG-CoA; purchased Sigma, USA
T1 sequence (P04035 426-888 limits assumed): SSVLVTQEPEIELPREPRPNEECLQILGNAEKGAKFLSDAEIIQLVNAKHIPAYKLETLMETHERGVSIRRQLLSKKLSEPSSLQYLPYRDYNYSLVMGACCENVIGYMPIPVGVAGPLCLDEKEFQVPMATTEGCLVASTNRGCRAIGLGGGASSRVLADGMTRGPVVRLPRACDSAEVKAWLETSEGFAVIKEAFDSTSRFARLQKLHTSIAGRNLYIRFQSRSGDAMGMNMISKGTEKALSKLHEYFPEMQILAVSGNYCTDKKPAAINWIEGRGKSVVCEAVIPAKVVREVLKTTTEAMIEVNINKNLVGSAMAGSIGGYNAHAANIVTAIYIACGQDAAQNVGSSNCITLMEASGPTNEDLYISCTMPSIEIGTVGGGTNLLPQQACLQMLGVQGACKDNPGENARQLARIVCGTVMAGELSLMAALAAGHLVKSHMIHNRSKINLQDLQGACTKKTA
Description: Commercial HMG-CoAR activity assay kit (Sigma, USA) is used in this experiment. The HMG-CoAR activity assay is based on the spectrophotometric measurement of the decrease in absorbance at 340 nm, which represents the oxidation of NADPH by the catalytic subunit of HMGR in the presence of the substrate of HMG-CoA. Pravastatin (Positive control), 7E1 or 7E2 are tested in this assay.
The HMG-CoAR activity was determined by the commercially available in vitro assay kit (Sigma, USA). The protocol of the assay was performed as described in the manufacture's manual. The HMG-CoAR activity assay is based on the spectrophotometric measurement of the decrease in absorbance at 340 nm, which represents the oxidation of NADPH by the catalytic subunit of HMGR in the presence of the substrate of HMG-CoA.
To validate the inhibitory effect of HMG-CoAR activity of compounds 7E1 and 7E2, in vitro HMG-CoAR activity is performed. Commercial HMG-CoAR activity assay kit (Sigma, USA) is used. The HMG-CoAR activity assay is based on the spectrophotometric measurement of the decrease in absorbance at 340 nm, which represents the oxidation of NADPH by the catalytic subunit of HMGR in the presence of the substrate of HMG-CoA. HMG-CoAR inhibitory effect of Pravastatin (Positive control), 7E1 or 7E2 are tested.

Compound: CC(C)=CCC[C@](C)(O[C@@H]1O[C@H](CO[C@@H]2OC[C@@H](O)[C@H](O)[C@H]2O)[C@@H](O)[C@H](O)[C@H]1O)[C@H]1CC[C@]2(C)[C@@H]1[C@H](O)C[C@@H]1[C@@]3(C)CC[C@H](O[C@@H]4O[C@H](CO)[C@@H](O)[C@H](O)[C@H]4O)C(C)(C)[C@@H]3CC[C@]12C [Compound 7E2, gypenoside IX]
- restoration of growth / reduction of inhibitory effect in the presence of mevalonate (compounds from Fraction 7) [1]: significant reduction of inhibitory effects
- growth inhibition in the yeast cells ([1]; 300 μg/ml): 80%
- inhibition of HMG-CoAR activity in vitro [2]: can inhibit the HMG-CoAR activity

Compound: gypenoside XLV-Ed [Compound 7E1]
- growth inhibition in the yeast cells ([1]; 150 μg/ml): 65%
- restoration of growth / reduction of inhibitory effect in the presence of mevalonate (compounds from Fraction 7) [1]: significant reduction of inhibitory effects
- inhibition of HMG-CoAR activity in vitro [2]: can inhibit the HMG-CoAR activity
